# Results published in US9610294B2, “Methods and compositions for the treatment of fluid accumulation in and/or under the retina” (UNIVERSITE PARIS DESCARTES, priority 2010, dated 2017).
# Entries after “also recorded” stand apart in the source; their conditions may differ.
# Columns and labels:
# retina = test: Intravitreous aldosterone injection in rat eyes: retinal morphology and thickness; assay type: in vivo, Lewis rats
# Experimental: All experiments were performed in accordance with the European Communities Council Directive 86/609/EEC and approved by local ethical committees. Adult female Lewis rats (8-12 weeks old, Janvier, Le Genest-Saint-Isle, France) were used for preparation of RMG primary cultures, for retinal organotypic cultures and for in vivo experiments. Rats were sacrificed by carbon dioxide inhalation.
# (§1) Anesthesia of rats was induced by intramuscular injection of ketamine (100 mg/kg, Virbac, Carros, France) and chlorpromazine (0.65 mg/kg, LARGACTIL®, Sanofi Aventis, Livron sur Drome, France). Intravitreous injections were performed using microfine (300 μl) syringes with 30 G needles under topical anesthesia (tetracaine 1%, Aldrich, Lyon, France). Rat eyes were injected with 5 μl aldosterone diluted in 0.9% saline to obtain a concentration of 200 nM for injection, corresponding to a final concentration of 20 nM in the vitreous. Control rat eyes were injected with 5 μl saline. Twenty-four hrs after injection, rats were sacrificed. Eyes were then removed for retinal flat mounting, immunohistochemistry and morphological analysis respectively.
# Enucleated eyes were fixed in 2.5% glutaraldehyde in cacodylate buffer (0.1 M, pH 7.4). After 30 min, eyes were dissected at the level of the limbus and lens removed. The posterior part was fixed for a further 5 hrs, dehydrated in a graded alcohol series (50%, 70%, 95% and 100%) and embedded in epoxy resin. Semi-thin sections (1 J.Im) were cut using an ultramicrotome (Reichert Ultracut E, Leica, Wetzlar, Germany), and stained with toluidine blue. The morphology was examined under a light microscope (DMRB, Leica). Retinal thickness was measured manually every 100 μm from the peripheral to the posterior pole. For analysis, the retina was divided into 3 zones: periphery, middle and posterior pole. In each zone, 3-4 individual measurements were performed in each section. Two to 6 sections were analyzed per rat (3 rats with aldosterone intravitreous injection and 3 with sham injection)
# AQP4 = AQP4 immunofluorescence and flat-mount confocal imaging in retina of aldosterone-injected eyes; assay type: in vivo, Lewis rats; conditions: aldosterone-injected vs sham-injected eyes
# Experimental: as §1
# Eyes were fixed for 15 min in 4% paraformaldehyde (PFA, LADD, Inland Europe, Conflans-sur-Lanterne, France). After washing, retinas were isolated, cut by 4 orthogonal incisions and post-fixed with acetone 100% at −20° C. for 15 min. […]
# Eyes were snap frozen in Tissue-Tek OCT-compound (Bayer Diagnostics, Puteaux, France). […] Images were taken using a fluorescence microscope (Olympus BX51, Rungis, France) equipped with a CCD camera (Olympus DP70). […]
# [1] = single intravitreous injection, 20 nM, 24 hrs later
compound,measurement,setting,value
C[C@]12CCC(=O)C=C1CC[C@@H]1[C@@H]2[C@@H](O)C[C@]2(C=O)[C@@H](C(=O)CO)CC[C@@H]12 [aldosterone],retinal swelling (increase compared to sham-injected eyes),"retina; intravitreous injection, 20 nM final in the vitreous, 24 hrs",24%
same,Retinal thickness compared to sham-injected eyes,retina; [1],significantly increased
same,retinal morphological changes on semi-thin sections,retina; [1],fluid accumulation in the entire retina
same,AQP4 localization / pattern of expression in retina,AQP4,additional localization; also recorded: extends all along RMG prolongations up to the OLM in their apical microvilli; also recorded: perivascular AQP4 fluorescence is more intense; also recorded: additional mislocalization
